Source: patent US10376520B2, “Methods for the treatment of cardiovascular disorders” (Galapagos NV, priority 2015, dated 2019)

Test system: RA patients
Test: Atherogenic index, Study 1 (RA patients, add-on to MTX)
Type: in vivo, human
Protocol: As used herein, the term ‘atherogenic index’ refers to
Double-blind, placebo-controlled add on study in subjects with moderately to severely active RA who have an inadequate response to methotrexate (MTX) (oral or parenteral).
Compound 1 (dosed as a [Compound 1:HCl:3H2O]) is dosed for twelve weeks once daily (q.d.) (50 mg, 100 mg or 200 mg) or twice daily (b.i.d.) (25 mg, 50 mg or 100 mg); or placebo.
At Week 12, the subjects on placebo who have not achieved 20% improvement in swollen joint count (SJC66) and tender joint count (TJC68) are re-randomized automatically to receive Compound 1 (dosed as a [Compound 1:HCl:3H2O]) either at 100 mg q.d. or 50 mg b.i.d. doses in a blinded fashion; subjects on 50 mg q.d. who have not achieved 20% improvement in SJC66 and TJC68 will be assigned to 100 mg q.d. and subjects on 25 mg b.i.d. that have not achieved a 20% improvement in SJC66 and TJC68 will be assigned to 50 mg b.i.d. Subjects who switch treatment at week 12 are handled as if they discontinued at week 12 for the purpose of statistical analysis, whereas subjects in the other groups will maintain their randomized treatment until Week 24.
The atherogenic index has been identified to be a good predictor of cardiovascular disorders risks and is calculated as follows: […]

[1] = 25 mg b.i.d continued over 24 weeks, week 1
[2] = 25 mg b.i.d continued over 24 weeks, week 2
[3] = 25 mg b.i.d continued over 24 weeks, week 4
[4] = 25 mg b.i.d continued over 24 weeks, week 8
[5] = 25 mg b.i.d continued over 24 weeks, week 12
[6] = 25 mg b.i.d continued over 24 weeks, week 16
[7] = 25 mg b.i.d continued over 24 weeks, week 20
[8] = 25 mg b.i.d continued over 24 weeks, week 24
[9] = 50 mg b.i.d. continued over 24 weeks, week 1
[10] = 50 mg b.i.d. continued over 24 weeks, week 2
[11] = 50 mg b.i.d. continued over 24 weeks, week 4
[12] = 50 mg b.i.d. continued over 24 weeks, week 8
[13] = 50 mg b.i.d. continued over 24 weeks, week 12
[14] = 50 mg b.i.d. continued over 24 weeks, week 16
[15] = 50 mg b.i.d. continued over 24 weeks, week 20
[16] = 50 mg b.i.d. continued over 24 weeks, week 24
[17] = 50 mg q.d. continued over 24 weeks, week 1
[18] = 50 mg q.d. continued over 24 weeks, week 2
[19] = 50 mg q.d. continued over 24 weeks, week 4
[20] = 50 mg q.d. continued over 24 weeks, week 8
[21] = 50 mg q.d. continued over 24 weeks, week 12
[22] = 50 mg q.d. continued over 24 weeks, week 16
[23] = 50 mg q.d. continued over 24 weeks, week 20
[24] = 50 mg q.d. continued over 24 weeks, week 24

O=C(Nc1nc2cccc(-c3ccc(CN4CCS(=O)(=O)CC4)cc3)n2n1)C1CC1 [Compound 1, cyclopropanecarboxylic acid {5-[4-(1,1-dioxo-thiomorpholin-4-ylmethyl)-phenyl]-[1,2,4]triazolo[1,5-a]pyridin-2yl}-amide] was tested, and the “Atherogenic index Mean CFB - 24 weeks results” value [1] was 0.08 mmol/L, the “Atherogenic index Mean percentage CFB - 24 weeks results” value [1] was 2.78% and the “Atherogenic index Median CFB - 24 weeks results” value (from here on “Atherogenic index Median CFB”) [1] was 0.10 mmol/L. The “Atherogenic index Mean CFB - 24 weeks results” value [2] was -0.01 mmol/L, the “Atherogenic index Mean percentage CFB - 24 weeks results” value [2] was 0.75% and the “Atherogenic index Median CFB” value [2] was 0.00 mmol/L. For the same compound, the “Atherogenic index Mean CFB - 24 weeks results” value [3] was -0.02 mmol/L, the “Atherogenic index Mean percentage CFB - 24 weeks results” value [3] was 0.43% and the “Atherogenic index Median CFB” value [3] was 0.00 mmol/L. For the same compound, the “Atherogenic index Mean CFB - 24 weeks results” value [4] was -0.05 mmol/L, the “Atherogenic index Mean percentage CFB - 24 weeks results” value [4] was −0.86% and the “Atherogenic index Median CFB” value [4] was -0.10 mmol/L. The “Atherogenic index Mean CFB - 24 weeks results” value [5] was 0.05 mmol/L, the “Atherogenic index Mean percentage CFB - 24 weeks results” value [5] was 2.68% and the “Atherogenic index Median CFB” value [5] was 0.00 mmol/L. For the same compound, the “Atherogenic index Mean CFB - 24 weeks results” value [6] was -0.03 mmol/L, the “Atherogenic index Mean percentage CFB - 24 weeks results” value [6] was 0.32% and the “Atherogenic index Median CFB” value [6] was 0.00 mmol/L. For the same compound, the “Atherogenic index Mean CFB - 24 weeks results” value [7] was 0.09 mmol/L, the “Atherogenic index Mean percentage CFB - 24 weeks results” value [7] was 4.42% and the “Atherogenic index Median CFB” value [7] was 0.00 mmol/L. The “Atherogenic index Mean CFB - 24 weeks results” value [8] was 0.02 mmol/L, the “Atherogenic index Mean percentage CFB - 24 weeks results” value [8] was 2.01% and the “Atherogenic index Median CFB” value [8] was 0.00 mmol/L. For the same compound, the “Atherogenic index Mean CFB - 24 weeks results” value [9] was -0.06 mmol/L, the “Atherogenic index Mean percentage CFB - 24 weeks results” value [9] was −0.30% and the “Atherogenic index Median CFB” value [9] was 0.00 mmol/L. The “Atherogenic index Mean CFB - 24 weeks results” value [10] was -0.21 mmol/L, the “Atherogenic index Mean percentage CFB - 24 weeks results” value [10] was −4.55% and the “Atherogenic index Median CFB” value [10] was -0.10 mmol/L. The “Atherogenic index Mean CFB - 24 weeks results” value [11] was -0.14 mmol/L, the “Atherogenic index Mean percentage CFB - 24 weeks results” value [11] was −2.75% and the “Atherogenic index Median CFB” value [11] was -0.10 mmol/L. For the same compound, the “Atherogenic index Mean CFB - 24 weeks results” value [12] was -0.18 mmol/L, the “Atherogenic index Mean percentage CFB - 24 weeks results” value [12] was −3.44% and the “Atherogenic index Median CFB” value [12] was -0.10 mmol/L. For the same compound, the “Atherogenic index Mean CFB - 24 weeks results” value [13] was -0.07 mmol/L, the “Atherogenic index Mean percentage CFB - 24 weeks results” value [13] was −0.87% and the “Atherogenic index Median CFB” value [13] was 0.00 mmol/L. The “Atherogenic index Mean CFB - 24 weeks results” value [14] was -0.13 mmol/L, the “Atherogenic index Mean percentage CFB - 24 weeks results” value [14] was −2.57% and the “Atherogenic index Median CFB” value [14] was -0.10 mmol/L. For the same compound, the “Atherogenic index Mean CFB - 24 weeks results” value [15] was -0.11 mmol/L, the “Atherogenic index Median CFB” value [15] was -0.10 mmol/L and the “Atherogenic index Mean CFB - 24 weeks results” value [16] was -0.04 mmol/L. The “Atherogenic index Mean percentage CFB - 24 weeks results” value [16] was 0.23%, the “Atherogenic index Median CFB” value [16] was 0.00 mmol/L and the “Atherogenic index Mean CFB - 24 weeks results” value [17] was -0.02 mmol/L. For the same compound, the “Atherogenic index Mean percentage CFB - 24 weeks results” value [17] was −0.40%, the “Atherogenic index Median CFB” value [17] was -0.10 mmol/L and the “Atherogenic index Mean CFB - 24 weeks results” value [18] was -0.15 mmol/L. For the same compound, the “Atherogenic index Mean percentage CFB - 24 weeks results” value [18] was −3.84%, the “Atherogenic index Median CFB” value [18] was -0.20 mmol/L and the “Atherogenic index Mean CFB - 24 weeks results” value [19] was -0.11 mmol/L. The “Atherogenic index Mean percentage CFB - 24 weeks results” value [19] was −2.94%, the “Atherogenic index Median CFB” value [19] was -0.10 mmol/L and the “Atherogenic index Mean CFB - 24 weeks results” value [20] was 0.00 mmol/L. The “Atherogenic index Mean percentage CFB - 24 weeks results” value [20] was 0.36%, the “Atherogenic index Median CFB” value [20] was -0.10 mmol/L and the “Atherogenic index Mean CFB - 24 weeks results” value [21] was 0.01 mmol/L. For the same compound, the “Atherogenic index Mean percentage CFB - 24 weeks results” value [21] was 1.11%, the “Atherogenic index Median CFB” value [21] was 0.00 mmol/L and the “Atherogenic index Mean CFB - 24 weeks results” value [22] was -0.01 mmol/L. For the same compound, the “Atherogenic index Mean percentage CFB - 24 weeks results” value [22] was 0.09%, the “Atherogenic index Median CFB” value [22] was 0.00 mmol/L and the “Atherogenic index Mean CFB - 24 weeks results” value [23] was -0.08 mmol/L. The “Atherogenic index Mean percentage CFB - 24 weeks results” value [23] was −1.32%, the “Atherogenic index Median CFB” value [23] was -0.10 mmol/L and the “Atherogenic index Mean CFB - 24 weeks results” value [24] was -0.12 mmol/L. The “Atherogenic index Mean percentage CFB - 24 weeks results” value [24] was −3.08%, the “Atherogenic index Median CFB” value [24] was -0.10 mmol/L and the “Atherogenic index Mean CFB” value (50 mg q.d., week 1) was -0.02 mmol/L. The “Atherogenic index Mean percentage CFB - 12 weeks results” value (50 mg q.d., week 1) was 0%.
